≈ marks a conversion by molar mass, not a printed value. *1 amine or outer side, *2 acyl side, *3 side chain or, on linkers, in order; H or OH if unused. Where a SMILES comes first, the peptide text is derived from it. Bridges are numbered along the chain shown (N, C = ends). [ ]: non-standard residue; d: D form. The star is where a group is joined. ξ: configuration not given here. NMeTrp(4-OMe) = CN[CH](Cc1c[nH]c2cccc(OC)c12)C(=O)O; X1 = O=C(C(N[*:1])C(O)c1ccccc1)[*:2]; ξNMe2Val = CC(C)C(C(=O)*)N(C)C; NMeT = CN[CH](C(=O)O)[CH](C)O; NMeL = CN[CH](CC(C)C)C(=O)O; NMeV = CN[CH](C(=O)O)C(C)C

The text below walks through data of US10702575B2, “Pharmaceutical composition for preventing or treating mycobacterium species infection and method using the same” (Seoul National University R&DB Foundation, priority 2017, dated 2020).

In test [1] the test system is Mtb H37Rv strain. Format: cell-based, Mycobacterium tuberculosis. Conditions: REMA; for anti-Mycobacterium tuberculosis activity as compared with INH, EMB, and SQ109 (FIG. 2): RFU vs concentration.
Test [2] relates to M. marinum. Kind of test: Mycobacterium marinum-Drosophila melanogaster infection system. Format: in vivo. The conditions noted are these: for viability of Drosophila melanogaster infected with M. marinum (FIG. 5A): OMS-A 1 μM or 10 μM, AMK 1 μg/ml in culture medium, about 30 days.
Test [3] relates to Bone-marrow-derived macrophages (BMDM). Kind of test: LC3 puncta formation assay in macrophage. Format: cell-based, mouse. The conditions noted are these: 10 μM, about 24 hours. As to the method: LC3 puncta formation and lipidation assay (Eisuke and Noboru, Autophagy, 2010, vol. 6, p. 764-776), which is mainly used in macrophage autophagy measurement, was performed. 10 μM of OMS-A or 10 μM of OMS-B was added to BMDM prepared in Section 4, and then cultured for about 24 hours. As a negative control, PBS was used. Subsequently, macrophage was stained with 4′,6-diamidino-2-phenylindole (DAPI, available from Sigma) and anti-LC3 antibody (available from Cell Signaling), and the number of LC3 puncta per macrophage was measured. The images of the stained macrophages are shown in FIG. 6A (“UN” represents “untreated”), and the number of LC3 puncta per macrophage are shown in FIG. 6B (**: p<0.01).

In test [4] the test system is LC3. Kind of test: LC3 immunoblotting of macrophage cytolysate. In kind it is cell-based, mouse. The conditions noted are these: for amount of LC3-II (FIG. 7A): 1 μM, 5 μM, 10 μM, about 24 hours, macrophage; for amount of LC3-II after pre-treatment, compared with treatment with OMS-A or OMS-B (FIG. 7B): pre-treatment with 10 μM 3-MA or 100 nM Baf-A before OMS-A or OMS-B. The method, then:
The obtained cytolysate was subjected to immunoblotting using anti-LC3 antibody (available from Cell Signaling) and anti-β-actin antibody (available from Santa Cruz). The results thereof are shown in FIG. 7A (“U” represents “untreated”). Further, in the case of pre-treatment of a macrophage with 10 μM of 3-methyladenine (3-MA), which is an autophagy inhibitor, or 100 nM of Bafilomycin A1 (Baf-A), which is an H^+-ATPase inhibitor, the immunoblot images of the macrophage are shown in FIG. 7B (“U” represents “untreated”, and “SC” represents “solvent control”).
On the technique in general: In western blotting, separated proteins are transferred to a membrane and probed.

Test [5] relates to LC3B. The test is described as follows: flow cytometry of macrophage with anti-LC3B antibody. Format: cell-based, mouse. Conditions: 10 μM, about 24 hours. The method, then:
Subsequently, a mean fluorescence intensity (MFI) of the macrophage was measured using the anti-LC3B antibody (available from Cell Signaling) according to flow cytometry.
A general note: In flow cytometry, cells or beads pass a laser one at a time.

The subject of test [6] is Mtb phagosome. Kind of test: co-localization of Mtb phagosome with LC3 or LAMP2 in macrophage. In kind it is cell-based, mouse. The conditions noted are these: 10 μM, about 24 hours, ERFP-Mtb macrophage.
For test [7], the system named is AMP-activated protein kinase (AMPK) cell signaling pathway. Format: cell-based, mouse.
The subject of test [8] is NF-κB. In kind it is cell-based, mouse. Conditions: 1 μM, 5 μM, 10 μM, about 6 hours.
Test [9] has as its system macrophage. Kind of test: mCherry-EGFP-LC3B autophagic flux in transfected macrophage. The conditions noted are these: 10 μM, about 24 hours.
Excerpt: Further, a macrophage was transfected with a retrovirus vector that expresses mCherry-enhanced green fluorescent protein (EGFP)-LC3B. […] Fluorescent images of the transfected macrophage were obtained, which are shown in FIG. 9 (“UN” represented “untreated”, and “N” represents “nucleus”).

Regarding `CNC(C(=O)NC(C(=O)NC1C(=O)N(C)C(C(C)O)C(=O)NC(C(C)C)C(=O)N(C)C(CC(C)C)C(=O)NC(C(C)C)C(=O)N(C)C(C(C)C)C(=O)N(C)C(Cc2c[nH]c3cccc(OC)c23)C(=O)NC(C(C)C)C(=O)NC(C(O)c2ccccc2)C(=O)NC(C(C)C)C(=O)OC1C)C(C)C)C(C)C` (stereo not drawn) [OMS-A, Ohmyungsamycin A] (H-[NMeV]VT[NMeT]V[NMeL]V[NMeV][NMeTrp(4-OMe)]V[X1]V; ester 3-C; configuration not given here), in [1], the “MIC50 (bacterial growth 50% MIC)” value amounted to 0.057 µM (≈ 0.0832 µg/mL); the “anti-Mycobacterium tuberculosis activity as compared with INH, EMB, and SQ109 (FIG. 2)” value is “excellent anti-Mycobacterium tuberculosis activity”. For the same compound, the “CFUs of M. marinum present in Drosophila melanogaster (FIG. 5B)” value in test [2] (1 μM or 10 μM OMS-A, compared with negative control (SC)) is “decreased in a concentration-dependent manner”. The “viability of Drosophila melanogaster infected with M. marinum (FIG. 5A)” value in test [2] is on record as “increased viability”. Further, the “LC3 puncta formation per macrophage (FIGS. 6A, 6B)” value in test [3] is listed as “great”. For the same compound, the “amount of LC3-II (FIG. 7A)” value in test [4] was “increased as compared with LC3-I”. Also, in [5], the “LC3B expression, mean fluorescence intensity (FIG. 8)” value was “increased level”. Besides, in test [6], the “co-localization of LAMP2 and Mtb phagosome (FIGS. 10C, 10D)” value is reported as “increased”; the “co-localization of LC3 and Mtb phagosome (FIGS. 10A, 10B)” value is listed as “increased”. In addition, in test [7], the “phoshorylation in Ser78 (S79) of ACC (FIGS. 11A, 11B)” value is listed as “induced” and the “phoshorylation in Thr172 of AMPKα (FIGS. 11A, 11B)” value was “induced”. In addition, the “NF-κB luciferase activity (FIG. 12B)” value in test [8] is “decreases in a concentration-dependent manner”. Further, the “number of red puncta, mCherry-EGFP-LC3B (FIG. 9)” value in [9] is “increased”.
Regarding `NCC[C@H](O)C(=O)N[C@@H]1C[C@H](N)[C@@H](O[C@H]2O[C@H](CN)[C@@H](O)[C@H](O)[C@H]2O)[C@H](O)[C@H]1O[C@H]1O[C@H](CO)[C@@H](O)[C@H](N)[C@H]1O` [AMK, amikacin, reference compound], the “viability of Drosophila melanogaster infected with M. marinum (FIG. 5A)” value in test [2] was “increased viability”.
Regarding `COc1cccc2[nH]cc(CC3C(=O)NC(C(C)C)C(=O)NC(C(O)c4ccccc4)C(=O)NC(C(C)C)C(=O)OC(C)C(NC(=O)C(NC(=O)C(C(C)C)N(C)C)C(C)C)C(=O)N(C)C(C(C)O)C(=O)NC(C(C)C)C(=O)N(C)C(CC(C)C)C(=O)NC(C(C)C)C(=O)N(C)C(C(C)C)C(=O)N3C)c12` (stereo not drawn) [OMS-B, Ohmyungsamycin B] (ξNMe2Val-VT[NMeT]V[NMeL]V[NMeV][NMeTrp(4-OMe)]V[X1]V; ester 2-C; configuration not given here), in test [1], the “MIC50 (bacterial growth 50% MIC)” value was found to be 0.117 µM (≈ 0.172 µg/mL); the “anti-Mycobacterium tuberculosis activity as compared with INH, EMB, and SQ109 (FIG. 2)” value was “excellent anti-Mycobacterium tuberculosis activity”. Also, the “LC3 puncta formation per macrophage (FIGS. 6A, 6B)” value in test [3] is recorded as “great”. Moreover, in test [4], the “amount of LC3-II (FIG. 7A)” value is listed as “increased as compared with LC3-I”. Further, the “LC3B expression, mean fluorescence intensity (FIG. 8)” value in test [5] is “increased level”. In [6], the “co-localization of LAMP2 and Mtb phagosome (FIGS. 10C, 10D)” value is listed as “increased”; the “co-localization of LC3 and Mtb phagosome (FIGS. 10A, 10B)” value is recorded as “increased”. Further, in test [7], the “phoshorylation in Ser78 (S79) of ACC (FIGS. 11A, 11B)” value is listed as “induced” and the “phoshorylation in Thr172 of AMPKα (FIGS. 11A, 11B)” value is reported as “induced”. The “NF-κB luciferase activity (FIG. 12B)” value in [8] is “decreases in a concentration-dependent manner”. In addition, the “number of red puncta, mCherry-EGFP-LC3B (FIG. 9)” value in test [9] was “increased”.
For `Cn1cnc(N)c2ncnc1-2` [3-MA, 3-methyladenine, reference compound], in test [4], the “amount of LC3-II after pre-treatment, compared with treatment with OMS-A or OMS-B (FIG. 7B)” value is on record as “decreased”.
On to `CO/C1=C\C(C)=C\[C@@H](C)[C@@H](O)[C@@H](C)C/C(C)=C/C=C/[C@H](OC)[C@@H]([C@@H](C)[C@@H](O)[C@H](C)[C@@]2(O)C[C@@H](O)[C@H](C)[C@@H](C(C)C)O2)OC1=O` [Baf-A, Bafilomycin A1, reference compound], for which the “amount of LC3-II after pre-treatment, compared with treatment with OMS-A or OMS-B (FIG. 7B)” value in test [4] was “increased”.
